Assay results published in US20020137929A1, “1 - (3-heterocyclylphenyl) isothiourea, -isourea, -guanidine and -amidine herbicidal agents” (Intellectual Property Department, BASF Aktiengesellschaft, priority 1998, published 2002).

How the values were obtained:
[1] = tested on: SETVI (Foxtail, Green); experiment: Preemergence herbicidal evaluation; type: in vivo, Setaria viridis; details: rated 4-5 weeks after treatment
Summary of the method: (§1)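 Test compound, dissolved in aqueous acetone, was sprayed over planted soil cups at an equivalent of about 0.0156 to 0.500 kg/ha; seeds had been mixed with potting soil. Greenhouse growth followed, with visual 0-9 scoring of injury at four to five weeks.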

[2] = tested on: ORYSAT (Rice, Tebonnet); experiment: Postemergence herbicidal evaluation; type: in vivo, Oryza sativa, (L.) Tebonnet; details: postemergence
Summary of the method: (§2)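 Herbicidal effect was judged by eye on a 0–9 scale covering stand, vigor, deformity, size and chlorosis, compared with controls, four to five weeks after seedlings about two weeks old were sprayed (40 psi, ~0.0156–0.500 kg/ha).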

[3] = tested on: ZEAMX (Corn, Field); experiment: Postemergence herbicidal evaluation; type: in vivo, Zea mays; details: postemergence
Summary of the method: as §2

[4] = tested on: SAGPY (Arrowhead (Pygmaea)); experiment: Postemergence weed control under flooded paddy conditions; type: in vivo, Sagittaria pygmaea; details: postemergence weeds, rated 3 to 4 weeks after treatment
Summary of the method: (§3)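 Injury ratings (0–9 scale covering stand, vigor, malformation, size, chlorosis and overall appearance versus control) were made three to four weeks after treatment. Test material, about 0.0313 to 0.500 kg/ha a.i. in 50/50 v/v aqueous/acetone, was added to flood water 1.5 to 3 cm deep over 3 to 5 cm weeds and 1.5 to 2.5 leaf rice.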

[5] = tested on: CASOB (Sicklepod); experiment: Postemergence herbicidal evaluation; type: in vivo, Cassia obtusifolia; details: postemergence
Summary of the method: as §2

[6] = tested on: CYPSE (Flatsedge); experiment: Postemergence weed control under flooded paddy conditions; type: in vivo, Cyperus serotinus; details: postemergence weeds, rated 3 to 4 weeks after treatment
Summary of the method: as §3

[7] = tested on: AMBEL (Ragweed, Common); experiment: Preemergence herbicidal evaluation; type: in vivo, Ambrosia artemisifolia; details: rated 4-5 weeks after treatment
Summary of the method: as §1

[8] = tested on: CHEAL (Lambsquarters, Common); experiment: Postemergence herbicidal evaluation; type: in vivo, Chenopodium album; details: postemergence
Summary of the method: as §2

[9] = tested on: CYPSE (Flatsedge); experiment: Preemergence weed control under flooded paddy conditions; type: in vivo, Cyperus serotinus; details: rated 3-4 weeks after treatment
Summary of the method: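 Ratings on a 0-9 visual scale cover stand, vigor, malformation, size, chlorosis and overall appearance relative to a control, taken three to four weeks post-treatment. Application was into flood water over freshly sown silt loam at roughly 0.0313 to 0.500 kg/ha.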

[10] = tested on: CYPIR (Rice Flatsedge); experiment: Postemergence weed control under flooded paddy conditions; type: in vivo, Cyperus iria; details: postemergence weeds, rated 3 to 4 weeks after treatment
Summary of the method: as §3

[11] = tested on: GLXMAW (Soybean, Williams); experiment: Preemergence herbicidal evaluation; type: in vivo, Glycine max, (L.) Merr. cv Williams; details: rated 4-5 weeks after treatment
Summary of the method: as §1

[12] = tested on: GALAP (Galium); experiment: Postemergence herbicidal evaluation; type: in vivo, Galium aparine; details: postemergence
Summary of the method: as §2

[13] = tested on: ORYSAT (Rice, Tebonnet); experiment: Preemergence herbicidal evaluation; type: in vivo, Oryza sativa, (L.) Tebonnet; details: rated 4-5 weeks after treatment
Summary of the method: as §1

CCOC(=O)[C@H](C)N1C(=O)CSC1=Nc1cc(-n2c(=O)cc(C(F)(F)F)n(C)c2=O)c(F)cc1Cl [Compound 76, Ethyl 2-{{2-chloro-5-[3,6-dihydro-3-methyl-2,6-dioxo-4-(trifluoromethyl)-1(2H)-pyrimidinyl]-4-fluorophenyl}imino}-α-methyl-4-oxo-3-thiazolidineacetate, L-]
Preemergence herbicidal rating SETVI ([1]; rate 0.0156 kg/ha): 0.0
Preemergence herbicidal rating SETVI ([1]; rate 0.0313 kg/ha): 6.0
Preemergence herbicidal rating SETVI ([1]; rate 0.0625 kg/ha): 7.0
Preemergence herbicidal rating SETVI ([1]; rate 0.1250 kg/ha): 9.0
Preemergence herbicidal rating SETVI ([1]; rate 0.2500 kg/ha): 9.0
ORYSAT herbicidal rating ([2]; rate 0.0158 kg/ha): 3.0
ORYSAT herbicidal rating ([2]; rate 0.0315 kg/ha): 4.0
ORYSAT herbicidal rating ([2]; rate 0.0630 kg/ha): 5.0
ZEAMX herbicidal rating ([3]; rate 0.0158 kg/ha): 4.5
ZEAMX herbicidal rating ([3]; rate 0.0315 kg/ha): 6.0
ZEAMX herbicidal rating ([3]; rate 0.0630 kg/ha): 7.0
Herbicidal rating SAGPY ([4]; Rate 0.0313 kg/ha): 0.0
Herbicidal rating SAGPY ([4]; Rate 0.0625 kg/ha): 0.0
Herbicidal rating SAGPY ([4]; Rate 0.1250 kg/ha): 4.0
Herbicidal rating SAGPY ([4]; Rate 0.2500 kg/ha): 4.0
CASOB herbicidal rating ([5]; rate 0.0158 kg/ha): 1.0
CASOB herbicidal rating ([5]; rate 0.0315 kg/ha): 4.0
CASOB herbicidal rating ([5]; rate 0.0630 kg/ha): 5.0
Herbicidal rating CYPSE ([6]; Rate 0.0313 kg/ha): 2.0
Herbicidal rating CYPSE ([6]; Rate 0.0625 kg/ha): 2.0
Herbicidal rating CYPSE ([6]; Rate 0.1250 kg/ha): 2.0
Herbicidal rating CYPSE ([6]; Rate 0.2500 kg/ha): 3.0
Preemergence herbicidal rating AMBEL ([7]; rate 0.0156 kg/ha): 0.0
Preemergence herbicidal rating AMBEL ([7]; rate 0.0313 kg/ha): 0.0
Preemergence herbicidal rating AMBEL ([7]; rate 0.0625 kg/ha): 7.0
Preemergence herbicidal rating AMBEL ([7]; rate 0.1250 kg/ha): 9.0
Preemergence herbicidal rating AMBEL ([7]; rate 0.2500 kg/ha): 9.0
CHEAL herbicidal rating ([8]; rate 0.0158 kg/ha): 3.0
CHEAL herbicidal rating ([8]; rate 0.0315 kg/ha): 7.0
CHEAL herbicidal rating ([8]; rate 0.0630 kg/ha): 7.0
CYPSE herbicidal effect rating ([9]; 0.0313 kg/ha): 2.0
CYPSE herbicidal effect rating ([9]; 0.0625 kg/ha): 2.0
CYPSE herbicidal effect rating ([9]; 0.1250 kg/ha): 2.0
CYPSE herbicidal effect rating ([9]; 0.2500 kg/ha): 3.0
Herbicidal rating CYPIR ([10]; Rate 0.0313 kg/ha): 0.0
Herbicidal rating CYPIR ([10]; Rate 0.0625 kg/ha): 0.0
Herbicidal rating CYPIR ([10]; Rate 0.1250 kg/ha): 0.0
Herbicidal rating CYPIR ([10]; Rate 0.2500 kg/ha): 6.0
Preemergence herbicidal rating GLXMAW ([11]; rate 0.0156 kg/ha): 0.0
Preemergence herbicidal rating GLXMAW ([11]; rate 0.0313 kg/ha): 0.0
Preemergence herbicidal rating GLXMAW ([11]; rate 0.0625 kg/ha): 3.0
Preemergence herbicidal rating GLXMAW ([11]; rate 0.1250 kg/ha): 6.0
Preemergence herbicidal rating GLXMAW ([11]; rate 0.2500 kg/ha): 9.0
GALAP herbicidal rating ([12]; rate 0.0158 kg/ha): 1.0
GALAP herbicidal rating ([12]; rate 0.0315 kg/ha): 6.0
GALAP herbicidal rating ([12]; rate 0.0630 kg/ha): 7.0
Preemergence herbicidal rating ORYSAT ([13]; rate 0.0156 kg/ha): 0.0
Preemergence herbicidal rating ORYSAT ([13]; rate 0.0313 kg/ha): 0.0
Preemergence herbicidal rating ORYSAT ([13]; rate 0.0625 kg/ha): 3.0
Preemergence herbicidal rating ORYSAT ([13]; rate 0.1250 kg/ha): 4.0
Preemergence herbicidal rating ORYSAT ([13]; rate 0.2500 kg/ha): 5.0

COC(=O)[C@H](Cc1ccc([N+](=O)[O-])cc1)N1C(=O)CSC1=Nc1cc(-n2c(=O)cc(C(F)(F)F)n(C)c2=O)c(F)cc1Cl [Compound 78, Methyl 2-{{2-chloro-5-[3,6-dihydro-3-methyl-2,6-dioxo-4-(trifluoromethyl)-1(2H)-pyrimidinyl]-4-fluorophenyl}imino}-4-oxo-α-(p-nitrobenzyl)-3-thiazolidineacetate, L-]
Preemergence herbicidal rating SETVI ([1]; rate 0.0156 kg/ha): 0.0
Preemergence herbicidal rating SETVI ([1]; rate 0.0313 kg/ha): 0.0
Preemergence herbicidal rating SETVI ([1]; rate 0.0625 kg/ha): 0.0
Preemergence herbicidal rating SETVI ([1]; rate 0.1250 kg/ha): 0.0
Preemergence herbicidal rating SETVI ([1]; rate 0.2500 kg/ha): 6.0
ORYSAT herbicidal rating ([2]; rate 0.0158 kg/ha): 3.0
ORYSAT herbicidal rating ([2]; rate 0.0315 kg/ha): 3.5
ORYSAT herbicidal rating ([2]; rate 0.0630 kg/ha): 4.0
ZEAMX herbicidal rating ([3]; rate 0.0158 kg/ha): 4.5
ZEAMX herbicidal rating ([3]; rate 0.0315 kg/ha): 5.0
ZEAMX herbicidal rating ([3]; rate 0.0630 kg/ha): 5.0
Herbicidal rating SAGPY ([4]; Rate 0.0313 kg/ha): 0.0
Herbicidal rating SAGPY ([4]; Rate 0.0625 kg/ha): 0.0
Herbicidal rating SAGPY ([4]; Rate 0.1250 kg/ha): 2.0
Herbicidal rating SAGPY ([4]; Rate 0.2500 kg/ha): 4.0
CASOB herbicidal rating ([5]; rate 0.0158 kg/ha): 1.0
CASOB herbicidal rating ([5]; rate 0.0315 kg/ha): 1.0
CASOB herbicidal rating ([5]; rate 0.0630 kg/ha): 3.0
Herbicidal rating CYPSE ([6]; Rate 0.0313 kg/ha): 6.0
Herbicidal rating CYPSE ([6]; Rate 0.0625 kg/ha): 6.0
Herbicidal rating CYPSE ([6]; Rate 0.1250 kg/ha): 7.0
Herbicidal rating CYPSE ([6]; Rate 0.2500 kg/ha): 9.0
Preemergence herbicidal rating AMBEL ([7]; rate 0.0156 kg/ha): 0.0
Preemergence herbicidal rating AMBEL ([7]; rate 0.0313 kg/ha): 0.0
Preemergence herbicidal rating AMBEL ([7]; rate 0.0625 kg/ha): 0.0
Preemergence herbicidal rating AMBEL ([7]; rate 0.1250 kg/ha): 1.0
Preemergence herbicidal rating AMBEL ([7]; rate 0.2500 kg/ha): 1.0
CHEAL herbicidal rating ([8]; rate 0.0158 kg/ha): 9.0
CHEAL herbicidal rating ([8]; rate 0.0315 kg/ha): 9.0
CHEAL herbicidal rating ([8]; rate 0.0630 kg/ha): 9.0
CYPSE herbicidal effect rating ([9]; 0.0313 kg/ha): 6.0
CYPSE herbicidal effect rating ([9]; 0.0625 kg/ha): 6.0
CYPSE herbicidal effect rating ([9]; 0.1250 kg/ha): 7.0
CYPSE herbicidal effect rating ([9]; 0.2500 kg/ha): 9.0
Herbicidal rating CYPIR ([10]; Rate 0.0313 kg/ha): 5.0
Herbicidal rating CYPIR ([10]; Rate 0.0625 kg/ha): 5.0
Herbicidal rating CYPIR ([10]; Rate 0.1250 kg/ha): 6.0
Herbicidal rating CYPIR ([10]; Rate 0.2500 kg/ha): 9.0
Preemergence herbicidal rating GLXMAW ([11]; rate 0.0156 kg/ha): 1.0
Preemergence herbicidal rating GLXMAW ([11]; rate 0.0313 kg/ha): 0.0
Preemergence herbicidal rating GLXMAW ([11]; rate 0.0625 kg/ha): 0.0
Preemergence herbicidal rating GLXMAW ([11]; rate 0.1250 kg/ha): 0.0
Preemergence herbicidal rating GLXMAW ([11]; rate 0.2500 kg/ha): 1.0
GALAP herbicidal rating ([12]; rate 0.0158 kg/ha): 1.0
GALAP herbicidal rating ([12]; rate 0.0315 kg/ha): 1.0
GALAP herbicidal rating ([12]; rate 0.0630 kg/ha): 2.0
Preemergence herbicidal rating ORYSAT ([13]; rate 0.0156 kg/ha): 0.0
Preemergence herbicidal rating ORYSAT ([13]; rate 0.0313 kg/ha): 0.0
Preemergence herbicidal rating ORYSAT ([13]; rate 0.0625 kg/ha): 0.0
Preemergence herbicidal rating ORYSAT ([13]; rate 0.1250 kg/ha): 0.0
Preemergence herbicidal rating ORYSAT ([13]; rate 0.2500 kg/ha): 0.0
